Consider ten molecules from ChEMBL document CHEMBL1201862, “PubChem BioAssay data set” (2004).

Some test systems named below: 786-0; ACHN; COLO 205; DU-145; HOP-62; HOP-92; IGROV-1; K562; LOX IMVI; MDA-MB-435; MOLT-4; Malme-3M; NCI-H23; NCI-H460; OVCAR-4; OVCAR-5; RPMI-8226; SF-295; SNB-75; T47D.
What all share (test): NCI anticancer screen, dose series, 48 h

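Compound exposure: 48 hours, 5 concentrations, 96-well plates. At the GI50, growth is halved.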 Calls of active or inactive are those of the source. No stated cut-off is given here; in the data, active = GI50 up to about 1.1 µM and inactive = higher.

In the case of `Cc1cc(N(CCOS(C)(=O)=O)CCOS(C)(=O)=O)ccc1/C=N/c1ccc(-c2csc(-c3ccc(Br)cc3)n2)cc1`, the GI50 with 786-0 was 1.84 µM (inactive); with ACHN, 0.518 µM (active); with COLO 205, 1.22 µM (inactive); in the experiment with DU-145 it was 1.91 µM (inactive); with HOP-62, 4.58 µM (inactive); in the experiment with HOP-92, 14.4 µM (inactive). Further, the GI50 is 5.43 µM (inactive) in the experiment on IGROV-1; 12.2 µM (inactive) with K562; 9.18 µM (inactive) in the experiment with LOX IMVI; 17.2 µM (inactive) in the experiment on MDA-MB-435; 2.38 µM (inactive) with MOLT-4; 21.9 µM (inactive) with Malme-3M. The GI50 with NCI-H23 is 5.07 µM (inactive); in the experiment with NCI-H460, 0.0483 µM (active); with OVCAR-4, 26.5 µM (inactive); in the experiment on OVCAR-5 it was 17.3 µM (inactive); in the experiment on RPMI-8226 it was 16 µM (inactive); in the experiment on SF-295, 2.95 µM (inactive). For the same molecule, the GI50 with SNB-75 is 3.99 µM (inactive); in the experiment on T47D, 10.9 µM (inactive).
In the case of `Cn1cnc2c(NCc3ccccc3)nc(NCCO)nc21` [OLOMOUCINE], the GI50 is 60.7 µM (inactive) in the experiment on 786-0; 35.9 µM (inactive) in the experiment on ACHN; 30.1 µM (inactive) with COLO 205; 34.1 µM (inactive) in the experiment on DU-145; 29.3 µM (inactive) with HOP-62; 61.2 µM (inactive) in the experiment on HOP-92. The GI50 in the experiment on IGROV-1 is 42.3 µM (inactive); in the experiment with K562 it was 107 µM (inactive); in the experiment with LOX IMVI, 24 µM (inactive); in the experiment on MDA-MB-435, 78.7 µM (inactive); in the experiment on MOLT-4, 70.1 µM (inactive); with Malme-3M, 98.2 µM (inactive). For the same molecule, the GI50 is 59.6 µM (inactive) in the experiment on NCI-H23; 104 µM (inactive) with NCI-H460; 94.2 µM (inactive) in the experiment on OVCAR-4; 53 µM (inactive) in the experiment on OVCAR-5; 53.8 µM (inactive) with RPMI-8226; 41.1 µM (inactive) with SF-295. Further, the GI50 in the experiment on SNB-75 was 21.3 µM (inactive); in the experiment on T47D it was 50.5 µM (inactive).
On to `C=C1C(=O)O[C@H]2[C@H]([C@H](C)CCCC(C)=O)O[C@H]([C@@]3(C)CCC(=O)O3)C[C@@H]12`, for which the GI50 was 35.2 µM (inactive) in the experiment on 786-0; 46.9 µM (inactive) in the experiment on ACHN; 40.6 µM (inactive) with COLO 205; 40.6 µM (inactive) in the experiment on DU-145; > 100 µM (inactive) in the experiment on HOP-62; > 100 µM (inactive) in the experiment with HOP-92. Also, the GI50 in the experiment on IGROV-1 was > 100 µM (inactive); with K562, 61.4 µM (inactive); with LOX IMVI, 24.4 µM (inactive); in the experiment with MDA-MB-435 it was 38.5 µM (inactive); in the experiment on MOLT-4 it was 78.7 µM (inactive); in the experiment on Malme-3M it was 18.4 µM (inactive). Moreover, the GI50 was 43.4 µM (inactive) in the experiment on NCI-H23; > 100 µM (inactive) in the experiment with NCI-H460; > 100 µM (inactive) in the experiment with OVCAR-4; > 100 µM (inactive) in the experiment on OVCAR-5; 31.8 µM (inactive) with RPMI-8226; > 100 µM (inactive) with SF-295. In addition, the figures for the GI50 in the experiment on SNB-75 and with T47D were > 100 µM (inactive) and 76 µM (inactive), respectively.
With `CC1(C)CN(c2ccccc2)C(=O)C1OC(=O)[C@@]1(C)C[C@@H]2C=C[C@H]1C2` (stereo not given in full), the GI50 in the experiment on 786-0 was 21.8 µM (inactive); in the experiment with ACHN, 34.5 µM (inactive); in the experiment with COLO 205, 19.1 µM (inactive); with DU-145 it was 87.5 µM (inactive); with HOP-62 it was 22.4 µM (inactive); with HOP-92, 27.9 µM (inactive). Moreover, the GI50 in the experiment with IGROV-1 was 16.9 µM (inactive); in the experiment with K562, 6.15 µM (inactive); in the experiment on LOX IMVI, 18.9 µM (inactive); with MDA-MB-435 it was 20.2 µM (inactive); in the experiment on MOLT-4, 38.2 µM (inactive); with Malme-3M, 10.9 µM (inactive). The GI50 with NCI-H23 is 25.2 µM (inactive); in the experiment with NCI-H460, 23 µM (inactive); with OVCAR-4, 18.1 µM (inactive); in the experiment on OVCAR-5, 28.1 µM (inactive); in the experiment on RPMI-8226 it was 12.3 µM (inactive); in the experiment on SF-295, 24.5 µM (inactive). For the same molecule, the GI50 in the experiment with SNB-75 is 34.3 µM (inactive); in the experiment on T47D, 32.7 µM (inactive).
`O=[N+]([O-])/C(C(Cl)=C(Cl)Cl)=C(/Br)SCc1ccccc1`: the GI50 in the experiment on 786-0 is 2.1 µM (inactive); with ACHN it was 2.64 µM (inactive); in the experiment with COLO 205, 1.6 µM (inactive); with DU-145 it was 12.9 µM (inactive); in the experiment on HOP-62, 15.5 µM (inactive); with HOP-92, 1.77 µM (inactive). The GI50 in the experiment on IGROV-1 was 3.71 µM (inactive); in the experiment with K562 it was 0.467 µM (active); in the experiment on LOX IMVI it was 1.56 µM (inactive); in the experiment with MDA-MB-435, 1.47 µM (inactive); in the experiment with MOLT-4 it was 0.26 µM (active); in the experiment with Malme-3M it was 2.88 µM (inactive). Besides, the GI50 in the experiment on NCI-H23 was 3.22 µM (inactive); with NCI-H460 it was 7.13 µM (inactive); with OVCAR-4, 3.3 µM (inactive); in the experiment on OVCAR-5, 5.71 µM (inactive); with RPMI-8226, 0.656 µM (active); in the experiment with SF-295, 15.9 µM (inactive). Moreover, the GI50 with SNB-75 was 2.56 µM (inactive); in the experiment on T47D it was 2.88 µM (inactive).
In the case of `Fc1nc(Sc2ncnc3nc[nH]c23)nc(-c2c3ccccc3c3sc4ccccc4n23)n1`, the GI50 with 786-0, with ACHN, with COLO 205, in the experiment with DU-145, with HOP-62 and with HOP-92 was > 100 µM (inactive) in each case. The GI50 with IGROV-1 was > 100 µM (inactive); in the experiment on K562, > 100 µM (inactive); in the experiment with LOX IMVI, 80 µM (inactive); in the experiment with MDA-MB-435, > 100 µM (inactive); in the experiment on MOLT-4, 77.8 µM (inactive); with Malme-3M it was > 100 µM (inactive). Besides, the GI50 with NCI-H23, in the experiment on NCI-H460, with OVCAR-4, in the experiment with OVCAR-5, in the experiment with RPMI-8226 and in the experiment on SF-295 was > 100 µM (inactive) in each case. The GI50 in the experiment on SNB-75 and in the experiment on T47D was > 100 µM (inactive) throughout.
In the case of `N#Cc1c(C#N)c(SSc2c(C#N)c(C#N)c(N)n2-c2cccc3ccccc23)n(-c2cccc3ccccc23)c1N`, the GI50 in the experiment on 786-0 was 1.98 µM (inactive); in the experiment on ACHN it was 5.15 µM (inactive); with COLO 205, 3.67 µM (inactive); in the experiment on DU-145 it was 21.9 µM (inactive); in the experiment on HOP-62, 21.7 µM (inactive); in the experiment with HOP-92, 4.71 µM (inactive). For the same molecule, the GI50 is 7.45 µM (inactive) in the experiment with IGROV-1; 3.51 µM (inactive) with K562; 7.94 µM (inactive) in the experiment on LOX IMVI; 8.77 µM (inactive) with MDA-MB-435; 2.63 µM (inactive) in the experiment on MOLT-4; 1.85 µM (inactive) with Malme-3M. The GI50 with NCI-H23 is 11.2 µM (inactive); in the experiment on NCI-H460, 46.8 µM (inactive); in the experiment on OVCAR-4, 6.01 µM (inactive); in the experiment on OVCAR-5, 24.2 µM (inactive); in the experiment with RPMI-8226, 2.76 µM (inactive); with SF-295 it was 19.9 µM (inactive). The GI50 with SNB-75 was 5.62 µM (inactive); with T47D it was 1.92 µM (inactive).
In the case of `Cc1cc(C)c2c(=O)n(CN3CCC(O)(c4ccccc4)CC3)sc2n1`, the GI50 with 786-0 was 17.1 µM (inactive); with ACHN it was 19.4 µM (inactive); with COLO 205 it was 39.2 µM (inactive); with DU-145 it was 38.3 µM (inactive); in the experiment with HOP-62 it was 34.7 µM (inactive); with HOP-92, > 100 µM (inactive). Also, the GI50 in the experiment with IGROV-1 was > 100 µM (inactive); with K562, 24 µM (inactive); with LOX IMVI, 31.1 µM (inactive); with MDA-MB-435, 20.4 µM (inactive); in the experiment with MOLT-4 it was 28.1 µM (inactive); in the experiment with Malme-3M, 17.6 µM (inactive). Moreover, the GI50 with NCI-H23 is 27.8 µM (inactive); with NCI-H460, 29 µM (inactive); in the experiment with OVCAR-4, 29.4 µM (inactive); with OVCAR-5, 23 µM (inactive); with RPMI-8226, 23.4 µM (inactive); in the experiment with SF-295, > 100 µM (inactive). Besides, the figures for the GI50 in the experiment on SNB-75 and with T47D were 19.2 µM (inactive) and 80.9 µM (inactive), respectively.
On to `CC(=O)Oc1ccc2c(c1)Oc1cc(C(C)=O)ccc1C21OC(=O)c2ccccc21` (stereo not given), for which the GI50 was > 100 µM (inactive) in the experiment on 786-0; > 100 µM (inactive) in the experiment with ACHN; > 100 µM (inactive) in the experiment on COLO 205; > 100 µM (inactive) with DU-145; 64.6 µM (inactive) in the experiment on HOP-62; > 100 µM (inactive) in the experiment with HOP-92. Moreover, the GI50 in the experiment on IGROV-1 was 85.5 µM (inactive); in the experiment with K562 it was > 100 µM (inactive); in the experiment with LOX IMVI it was > 100 µM (inactive); in the experiment on MDA-MB-435, 88.3 µM (inactive); in the experiment with MOLT-4, > 100 µM (inactive); with Malme-3M it was > 100 µM (inactive). Also, the GI50 is > 100 µM (inactive) with NCI-H23; > 100 µM (inactive) in the experiment with NCI-H460; > 100 µM (inactive) in the experiment on OVCAR-4; > 100 µM (inactive) in the experiment with OVCAR-5; 30.2 µM (inactive) with RPMI-8226; > 100 µM (inactive) in the experiment with SF-295. Further, the GI50 in the experiment with SNB-75 was 94.8 µM (inactive); in the experiment with T47D, > 100 µM (inactive).
In the case of `CN(C)c1ccc(/C=C(\NC(=O)c2ccccc2)c2nn(C)c(=O)o2)cc1`, the GI50 in the experiment with 786-0 was 41.5 µM (inactive); with ACHN it was > 100 µM (inactive); with COLO 205 it was > 100 µM (inactive); in the experiment on DU-145, > 100 µM (inactive); in the experiment on HOP-62, 18.1 µM (inactive); in the experiment with HOP-92 it was > 100 µM (inactive). The GI50 in the experiment on IGROV-1 is 58.6 µM (inactive); in the experiment on K562, > 100 µM (inactive); in the experiment with LOX IMVI it was 60.1 µM (inactive); in the experiment with MDA-MB-435, 69 µM (inactive); in the experiment with MOLT-4, 35.3 µM (inactive); in the experiment on Malme-3M it was 78.2 µM (inactive). Further, the GI50 with NCI-H23 is > 100 µM (inactive); in the experiment with NCI-H460, 44.4 µM (inactive); in the experiment with OVCAR-4, 28.9 µM (inactive); with OVCAR-5, > 100 µM (inactive); with RPMI-8226, 32 µM (inactive); with SF-295, 47.5 µM (inactive). Also, the GI50 in the experiment with SNB-75 was 16.9 µM (inactive); in the experiment with T47D it was > 100 µM (inactive).
